Assay results from PMC12623744 (Scientific Reports, 2025).
Positions of bridges follow the written chain, without caps; N, C: chain ends. Non-standard residues stand in square brackets, D forms with d. Residues, ends and D or L forms follow the SMILES beside them. Nle = CCCC[C@H](N)C(=O)O

Tests used:
[1] = tested on: HVEM/LIGHT interaction (NF-κB::eGFP activation); experiment: Cellular reporter assay: JE6.1-NF-κB::eGFP HVEM reporter cells stimulated with TCS LIGHT; assay type: cell-based; conditions: relative to co-culture without peptides = 100%; highest tested concentration (50 µM chosen as highest); 24 h co-culture; three experiments in triplicate
Source text: Reporter cells expressing the HVEM protein (JE6.1-NF-κB::eGFP HVEM) and T cell stimulators expressing LIGHT (TCS LIGHT) were utilized in cellular assays and the principle of this cell-based assay has been described in detail in previous publication. In short, when the peptides inhibited the HVEM/LIGHT interaction, a reduction in NF-κB activation was observed, accompanied by a corresponding decrease in enhanced green fluorescent protein (eGFP) levels. The percentage of reporter cell activation was calculated relative to a control condition, which was reporter cell co-cultured with TCS without peptides.
The experiments utilized the JE6.1-NF-κB::eGFP HVEM (modified Jurkat), TCS LIGHT, TCS Crtl and TCS CD86 Ctrl cell lines (modified BW5147) which have been described in earlier studies^57,58. Jurkat E6.1 cell line (describe in Supplementary Materials) was purchased from Cell Line Service GmbH, while the JE6.1-NF-κB::eGFP HVEM, TCS LIGHT, TCS Crtl and TCS CD86 Ctrl cell lines are property of the laboratory of Prof. […] The plates were incubated for 20 min at 4 °C, washed with FACS buffer (PBS, 5–10% FBS, 0.1% NaN₃), and resuspended in 50 µL of fresh FACS buffer. eGFP expression was measured using a CytoFLEX flow cytometer (Beckman Coulter, USA). Data were analyzed using FlowJo v10.10 (FlowJo LLC, USA) and GraphPad Prism (San Diego, USA) with univariate ANOVA and Dunnett’s post-hoc test. […]

HVEM/LIGHT complex = experiment: Competitive ELISA, inhibition of HVEM/LIGHT complex formation; assay type: biochemical, human; conditions: coated HVEM-His 6 µg/mL, LIGHT-Fc 2 µg/mL, highest concentration tested (50 µM)
Method: To assess the inhibitory properties of the peptides the ELISA was conducted. Based on the obtained results, it can be concluded that the inhibitory properties of the peptides are strongly correlated with their affinity to HVEM as determined by theoretical methods, as well as with those measured by SpS.
ELISA was conducted using transparent polystyrene 96-well plates (Brand, Wertheim, Germany). Wells were coated with HVEM-His protein at concentration 6 µg/mL dissolved in PBS-T (100 µL per well) and incubated overnight at 4 °C. Unbound sites on the wells by HVEM were blocked with 5% bovine serum albumin (BSA) in PBS-T (200 µL per well). Peptides at three concentrations 50 µM, 12.5 µM, and 3.125 µM dissolved in PBS-T were added and incubated (200 µL per well). […] In the next step horseradish peroxidase (HRP)-conjugated goat antibody (Bio-Rad, Hercules, USA) at dilution 1:3000 in PBS-T (100µL per well) was applied. After each step, wells were washed five times with 200 µL of PBS-T. Incubations were carried out at 37 °C for 2 h, except for the antibody, which was incubated for 1 h. Finally, 200 µL of TMB substrate (Thermo Fisher Scientific,Waltham, MA, USA) was added, and after 15 min of incubation in the dark, absorbance was measured at 492 nm and 650 nm using an Infinite M200 Pro reader (Tecan, Switzerland). The negative control consisted of PBS-T buffer without peptides, while the positive control was mouse anti-human HVEM antibodies (1 µg/well, Bio-Rad, Hercules, CA, USA; #MCA6072GA). Each experiment was performed in three biological replicates, each consisting of three technical replicates and data were analyzed using one-way ANOVA with Dunnett’s post-hoc test in GraphPad Prism (San Diego, USA).

[2] = Peptide stability in medium (Jurkat E6.1 cell supernatant); assay type: in vitro ADME; conditions: human, Jurkat E6.1 cell supernatant (conditioned culture medium), Jurkat E6.1 cell supernatant (RPMI 1640, 10% FBS), 1.5 mg/mL peptide, 37 °C with stirring, RP-HPLC peak area vs peptide in water at time 0, triplicate
Method: The inhibitory effects of the peptides were also evaluated using cell line-based platform, but before performing this tests, the stability of peptides in medium used in co-culture and cytotoxicity towards cell lines used in the experiments had to be determined. After 24 h of incubation (the time when the peptides are incubated with cells), there is a clear difference in stability between peptides based on one of the interaction centres (light1 and 2 – stability is 88% and 77% respectively) and between those based on the other centre (light3, 4 and 3_E178L – stability ranging from 49% to 29%). However, all peptides, despite some degradation, are present in the sample during the experiment (Figure S5).
HVEM light1 light light light _E178L
Figure S8 . SpS binding check experiments for selected LIGHT-derived peptides and HVEM compared to negative control (HVEM protein without any ligand). Dotted line represents three times the standard deviation range. […]
experiments. […]
Peptide stability was assessed using the supernatant from the Jurkat E6.1 cell line. […] The samples were analyzed by reverse-phase high-performance liquid chromatography (RP-HPLC) on a Kromasil C8 column ([…] × 4.6 mm, 5 μm) using a gradient of 5% to 100% solvent B over 60 minutes. […]
The cytotoxic effects of the peptides were evaluated on two cell lines: Jurkat E6.1 and TCS-Ctrl (a modified BW5147 cell line). […]

remaining at 24 h, 1.5 mg/mL [2] [%]	SMILES	reporter cell activation level [1] [%]	inhibition of HVEM/LIGHT complex formation (HVEM/LIGHT complex) [%]
–	CC(=O)N[C@H](C(=O)N[C@H]1CSSC[C@@H](C(=O)N[C@@H](CO)C(N)=O)NC(=O)[C@H](CCC(N)=O)NC(=O)[C@H](CO)NC(=O)[C@H](C(C)C)NC(=O)[C@H](CC(C)C)NC(=O)[C@H](CC(C)C)NC(=O)[C@H](CC(C)C)NC(=O)[C@H](CC(C)C)NC(=O)[C@H](CCC(=O)O)NC(=O)[C@H](CCC(=O)O)NC(=O)[C@@H]2CCCN2C(=O)[C@H](Cc2ccc(O)cc2)NC(=O)[C@H](CCCNC(=N)N)NC(=O)[C@@H]2CCCN2C(=O)[C@H]([C@@H](C)O)NC(=O)[C@H](CCCNC(=N)N)NC(=O)[C@H](CCCCN)NC(=O)[C@H](Cc2ccc(O)cc2)NC(=O)[C@H](CC(C)C)NC(=O)CNC(=O)[C@H](Cc2c[nH]cn2)NC(=O)[C@H]([C@@H](C)O)NC1=O)[C@@H](C)O [light3_E178L] (Ac-TCTHGLYKRTPRYPEELLLLVSQCS-NH2; disulfide 2-24)	74	19
77	CC(=O)N[C@@H](CCC(=O)O)C(=O)N[C@H]1CSSC[C@@H](C(=O)N[C@H](C(N)=O)C(C)C)NC(=O)[C@H](Cc2ccccc2)NC(=O)[C@H](C)NC(=O)CNC(=O)[C@H](Cc2ccccc2)NC(=O)[C@H](Cc2ccc(O)cc2)NC(=O)[C@H](CO)NC(=O)[C@H](CCCNC(=N)N)NC(=O)[C@H]([C@@H](C)O)NC(=O)CNC(=O)[C@H](CC(=O)O)NC(=O)[C@H](CCCNC(=N)N)NC(=O)[C@H](CC(C)C)NC(=O)[C@H](CCCNC(=N)N)NC(=O)[C@H](C(C)C)NC(=O)[C@H](CC(C)C)NC(=O)[C@H](CCCNC(=N)N)NC(=O)[C@H](CCC(=O)O)NC(=O)[C@H](CC(=O)O)NC(=O)[C@H](CC(C)C)NC(=O)[C@H](C(C)C)NC(=O)[C@H](CCCNC(=N)N)NC(=O)[C@H](C(C)C)NC(=O)[C@H](C(C)C)NC(=O)[C@H](C(C)C)NC(=O)[C@H](CCC(=O)O)NC(=O)[C@H](CCC(=O)O)NC(=O)CNC1=O [light2] (Ac-ECGEEVVVRVLDERLVRLRDGTRSYFGAFCV-NH2; disulfide 2-30)	–	–
88	CCCC[C@H](NC(=O)[C@H](Cc1ccccc1)NC(=O)[C@H](C)NC(=O)CNC(=O)[C@@H]1CSSC[C@H](NC(=O)[C@@H](NC(=O)[C@@H](NC(=O)[C@H](CCC(=O)O)NC(=O)[C@H](CCC(=O)O)NC(=O)CNC(=O)[C@H](C)NC(=O)[C@H](CCC(=O)O)NC(C)=O)C(C)C)C(C)C)C(=O)N[C@@H](CCCNC(=N)N)C(=O)N[C@@H](C(C)C)C(=O)N[C@@H](CC(C)C)C(=O)N[C@@H](CC(=O)O)C(=O)N[C@@H](CCC(=O)O)C(=O)N[C@@H](CCCNC(=N)N)C(=O)N[C@@H](CC(C)C)C(=O)N[C@@H](C(C)C)C(=O)N[C@@H](CCCNC(=N)N)C(=O)N[C@@H](CC(C)C)C(=O)N[C@@H](CCCNC(=N)N)C(=O)N[C@@H](CC(=O)O)C(=O)NCC(=O)N[C@@H]([C@@H](C)O)C(=O)N[C@@H](CCCNC(=N)N)C(=O)N[C@@H](CO)C(=O)N[C@@H](Cc2ccc(O)cc2)C(=O)N1)C(=O)N[C@H](C(N)=O)C(C)C [light1] (Ac-EAGEEVVCRVLDERLVRLRDGTRSYCGAF[Nle]V-NH2; disulfide 8-26)	–	–
–	CC(=O)N[C@H](C(=O)N[C@H]1CSSC[C@@H](C(=O)N[C@@H](CO)C(N)=O)NC(=O)[C@H](CCC(N)=O)NC(=O)[C@H](CO)NC(=O)[C@H](C(C)C)NC(=O)[C@H](CC(C)C)NC(=O)[C@H](CC(C)C)NC(=O)[C@H](CCC(=O)O)NC(=O)[C@H](CC(C)C)NC(=O)[C@H](CCC(=O)O)NC(=O)[C@H](CCC(=O)O)NC(=O)[C@@H]2CCCN2C(=O)[C@H](Cc2ccc(O)cc2)NC(=O)[C@H](CCCNC(=N)N)NC(=O)[C@@H]2CCCN2C(=O)[C@H]([C@@H](C)O)NC(=O)[C@H](CCCNC(=N)N)NC(=O)[C@H](CCCCN)NC(=O)[C@H](Cc2ccc(O)cc2)NC(=O)[C@H](CC(C)C)NC(=O)CNC(=O)[C@H](Cc2c[nH]cn2)NC(=O)[C@H]([C@@H](C)O)NC1=O)[C@@H](C)O [light3] (Ac-TCTHGLYKRTPRYPEELELLVSQCS-NH2; disulfide 2-24)	78	22
